Assay results as given in patent US9029097B2, “Biosensors for monitoring receptor-mediated G-protein activation” (Universite de Montreal, priority 2005, dated 2015).
Entries after “also recorded” stand apart in the source; their conditions may differ. Like-named read-outs stand apart in the source and are kept apart here.

Columns and labels:
[1] = molecular target: T1, human α2A-adrenergic receptor (α2AAR) (Homo sapiens, UniProt P08913); experiment: BRET between α2AAR and tagged G protein subunits (Gβ1, Gγ2, Gαi1-91Rluc, Gαi1-122Rluc) in living HEK293T cells; assay type: cell-based; conditions: for effect of pre-treatment on agonist-promoted changes in BRET between α2AAR and G protein subunits: pertussis toxin 16 h at 37° C., UK14,304, FIG. 21
T1 construct: expressed in transfected cells; host or cells: HEK293T (transient)
T1 sequence (P08913 1-465): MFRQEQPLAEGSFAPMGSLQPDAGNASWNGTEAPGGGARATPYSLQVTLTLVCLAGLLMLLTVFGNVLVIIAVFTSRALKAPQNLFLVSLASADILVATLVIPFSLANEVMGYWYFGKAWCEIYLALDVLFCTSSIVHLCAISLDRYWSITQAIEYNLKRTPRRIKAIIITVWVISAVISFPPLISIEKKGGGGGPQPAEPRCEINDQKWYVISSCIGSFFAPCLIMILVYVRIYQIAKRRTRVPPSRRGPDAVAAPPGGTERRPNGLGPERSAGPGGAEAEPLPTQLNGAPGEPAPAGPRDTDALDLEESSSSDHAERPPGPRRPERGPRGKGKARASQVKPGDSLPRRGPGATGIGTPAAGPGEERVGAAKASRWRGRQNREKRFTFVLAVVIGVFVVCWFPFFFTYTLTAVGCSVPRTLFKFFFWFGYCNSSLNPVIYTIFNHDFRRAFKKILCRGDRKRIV
Description: (§1) Rluc-tagged receptors and G protein constructs were transiently co-transfected in HEK293T cells. […] For the experiment using α2AAR-Rluc (FIG. 4f), the G protein heterotrimer was complimented with the most specific Gαi2. Forty-eight hours post-transfection, cells were washed twice with PBS, detached with PBS-5 mM EDTA and resuspended in PBS-0.1% glucose at RT. Cells (50 μg of proteins per well) were then distributed in a 96-well microplate (white Optiplate, PerkinElmer) and incubated in the presence or absence of different ligands for 1 min except in the case of the kinetic studies where the times are indicated. DeepBlueC™ coelenterazine (PerkinElmer) was added at a final concentration of 5 μM, and readings (except for the kinetic studies; see below) were collected using a modified top-count apparatus (TopCount.NX™, Packard Bioscience) that allows the sequential integration of the signals detected in the 370-450 nm and 500-530 nm windows using filters with the appropriate band pass (Chroma). The BRET signal was determined by calculating the ratio of the light emitted by GFP10 (500-530 nm) over the light emitted by the Rluc (370-450 nm). The net BRET values were obtained by subtracting the BRET background signal detected when the Rluc-tagged construct was expressed alone from BRET signals detected in cells coexpressing both Rluc- and GFP10-tagged constructs. […] The expression level of each protein was determined by direct measurement of total fluorescence and luminescence on aliquots of the transfected cells. The GFP10 total fluorescence was measured using a FluoroCount (PerkinElmer) with an excitation filter at 400 nm, an emission at 510 nm, and the following parameters: gain 1; PMT 1100 V; time 1.0 s. After fluorescence measurement, the same cells were incubated for 8 min with Coelenterazine h (Molecular Probes) at a final concentration of 5 μM and the total luminescence of cells was measured using a LumiCount (PerkinElmer Life Sciences) with the following parameters: gain 1; PMT 900 V; time 0.5 s. […] To avoid variations in the BRET signal that could result from fluctuations in the relative expression levels of the energy donor and acceptor, transfection conditions were designed so as to maintain a constant GFP10/Rluc expression ratio in each experimental set.
For kinetic analysis of receptor/Gαβγ interactions, DeepBlueC™ or Coelenterazine h luciferase substrate was added prior to the injection of the different ligands using the Mithras LB 940 apparatus (Berthold) and MicroWin2000 software. Readings were then collected at 0.05 or 0.1 sec intervals. Injection of the different ligands was included with in the kinetic program to allow a baseline recording followed by real-time recording of the BRET changes. The BRET signals were determined for each time by calculating the ratio of the light emitted by GFP over that emitted by the Rluc. To determine the half-time (t½) of Iso-induced BRET, data were represented as the difference between the Iso-induced BRET signals and the average of basal BRET signal (net agonist-promoted BRET signal). Curves were fitted using a non-linear regression and one phase exponential association fit equation (GraphPad Prism).
For agonist stimulations longer than 1 minute, cells were first treated with the ligand (agonist, antagonist, inverse agonist) and DeepBlueC™ coelenterazine added immediately before BRET readings in the modified TopCount.NXT™ apparatus. For these experiments, readings were taken directly in 96 well plates 72 hours post-transfection without detaching the cells.

[2] = molecular target: T2, α2AAR (Homo sapiens, UniProt P08913); experiment: BRET between Gαi1-Rluc and GFP10-Gγ2 in the presence of α2AAR (Gα/Gβγ interaction); assay type: cell-based
T2 construct: expressed in transfected cells; host or cells: HEK293T
T2 sequence (P08913 1-465): T1 sequence (P08913 1-465)
Description: as §1

[3] = molecular target: T3, β2-adrenergic receptor (β2AR) (Homo sapiens, UniProt P07550); experiment: BRET2 receptor/G protein interaction assay: β2AR-Rluc (or β2AR-GFP10) with tagged G protein subunits in living HEK293T cells; assay type: cell-based
T3 construct: expressed in transfected cells; host or cells: HEK293T (transient, calcium phosphate)
Description: Rluc-tagged receptors and G protein constructs were transiently co-transfected in HEK293T cells. […] For the experiment using α2AAR-Rluc (FIG. 4f), the G protein heterotrimer was complimented with the most specific Gαi2. Forty-eight hours post-transfection, cells were washed twice with PBS, detached with PBS-5 mM EDTA and resuspended in PBS-0.1% glucose at RT. Cells (50 μg of proteins per well) were then distributed in a 96-well microplate (white Optiplate, PerkinElmer) and incubated in the presence or absence of different ligands for 1 min except in the case of the kinetic studies where the times are indicated. DeepBlueC™ coelenterazine (PerkinElmer) was added at a final concentration of 5 μM, and readings (except for the kinetic studies; see below) were collected using a modified top-count apparatus (TopCount.NX™, Packard Bioscience) that allows the sequential integration of the signals detected in the 370-450 nm and 500-530 nm windows using filters with the appropriate band pass (Chroma). The BRET signal was determined by calculating the ratio of the light emitted by GFP10 (500-530 nm) over the light emitted by the Rluc (370-450 nm). The net BRET values were obtained by subtracting the BRET background signal detected when the Rluc-tagged construct was expressed alone from BRET signals detected in cells coexpressing both Rluc- and GFP10-tagged constructs. […]

[4] = molecular target: T3, β2-adrenergic receptor (β2AR); experiment: BRET in membrane preparations from HEK293T cells co-expressing β2AR-Rluc and GFP10-Gβ1 or GFP10-Gγ2; assay type: biochemical; conditions: membranes
Description: Treatments: Iso, 10 μM; Feno, 10 μM; ICI, 100 μM; GTPγS, 200 μM. […] Rluc-tagged receptors and G protein constructs were transiently co-transfected in HEK293T cells. […] Forty-eight hours post-transfection, cells were washed twice with PBS, detached with PBS-5 mM EDTA and resuspended in PBS-0.1% glucose at RT. […] DeepBlueCTM coelenterazine (PerkinElmer) was added at a final concentration of 5 μM, and readings (except for the kinetic studies; see below) were collected using a modified top-count apparatus (TopCount.NXTM, Packard Bioscience) that allows the sequential integration of the signals detected in the 370-450 nm and 500-530 nm windows using filters with the appropriate band pass (Chroma). […] The net BRET values were obtained by subtracting the BRET background signal detected when the Rluc-tagged construct was expressed alone from BRET signals detected in cells coexpressing both Rluc- and GFP10-tagged constructs. […] The expression level of each protein was determined by direct measurement of total fluorescence and luminescence on aliquots of the transfected cells. […] To avoid variations in the BRET signal that could result from fluctuations in the relative expression levels of the energy donor and acceptor, transfection conditions were designed so as to maintain a constant GFP10/Rluc expression ratio in each experimental set.

[5] = untagged α2AAR, ligands 10 μM, FIG. 27A, 27C

Compound: COC1(C2=NCCN2)COc2ccccc2O1 (stereo not shown) [RX821002]
- effect of pretreatment on UK14,304-promoted BRET increase, α2AAR / G protein pairs ([1]; FIG. 25): completely blocked the UK14,304-promoted BRET increase
- effect of preincubation on agonist-stimulated BRET response, Gαi1-Rluc / α2AAR-GFP10 ([1]; agonist UK14304, FIG. 3E): completely blocked the agonist-stimulated response
- modulation of BRET, Gαi1-Rluc / α2AAR-GFP10 ([1]; ligands 10 μM, FIG. 3E): unable to modulate the BRET signal
- change in BRET2, Gαi1-91Rluc / α2AAR-GFP2 ([1]; ligands 10 μM, FIG. 20, 25): little or no effect
- change in BRET2, Gαi1-122Rluc / α2AAR-GFP2 ([1]; ligands 10 μM, FIG. 20, 25): promoted a decrease in the BRET
- change in BRET2, α2AAR-Rluc / GFP10-Gβ1 ([1]; ligands 10 μM, FIG. 20, 25): little or no effect
- change in BRET2, α2AAR-Rluc / GFP10-Gγ2 ([1]; ligands 10 μM, FIG. 20, 25): little or no effect
- change in BRET, Gαi1-91Rluc / GFP10-Gγ2 [2, 5]: no effect on the BRET signal
- change in BRET, Gαi1-122Rluc / GFP10-Gγ2 [2, 5]: significant decrease in the BRET signal

Compound: COC(=O)[C@@H]1[C@H]2C[C@H]3c4[nH]c5ccccc5c4CCN3C[C@@H]2CC[C@@H]1O [yohimbine, Yohimbine]
- change in BRET2, Gαi1-91Rluc / α2AAR-GFP2 [1]: little or no effect
- change in BRET2, Gαi1-122Rluc / α2AAR-GFP2 [1]: promoted a decrease in the BRET
- change in BRET2, α2AAR-Rluc / GFP10-Gβ1 [1]: little or no effect
- change in BRET2, α2AAR-Rluc / GFP10-Gγ2 [1]: little or no effect
- modulation of BRET, Gαi1-Rluc / α2AAR-GFP10 [1]: unable to modulate the BRET signal
- change in BRET, Gαi1-91Rluc / GFP10-Gγ2 [2, 5]: no effect on the BRET signal
- change in BRET, Gαi1-122Rluc / GFP10-Gγ2 [2, 5]: significant decrease in the BRET signal

Compound: CC(Cc1ccc(O)cc1)NCC(O)c1cc(O)cc(O)c1 (stereo not shown) [fenoterol]
- ligand-promoted BRET response, β2AR-Rluc / GFP10-Gβ1 or GFP10-Gγ2, compared with isoproterenol ([3]; Feno 10 μM, Iso 10 μM, FIG. 3C): promoted only a fraction of the response evoked by the full agonist isoproterenol

Compound: Brc1c(NC2=NCCN2)ccc2nccnc12 [UK14,304]
- change in BRET1, Gαi1-91Rluc / α2AAR-Venus, measured concomitantly with BRET2 in the same cells [1]: increase in the BRET
- change in BRET2, Gαi1-91Rluc / α2AAR-GFP2 [1]: significantly increased the BRET
- change in BRET2, α2AAR-Rluc / GFP10-Gβ1 [1]: significantly increased the BRET
- change in BRET2, α2AAR-Rluc / GFP10-Gγ2 [1]: significantly increased the BRET
- loss (decrease) of BRET signal, α2AAR-Rluc / GFP10-Gγ2 [1]: 24%
- real-time BRET1 change, Gαi1-91Rluc / α2AAR-Venus [1]: rapid increases in the BRET
- real-time BRET1 change, Rluc-Gγ2 / α2AAR-Venus [1]: rapid increases in the BRET
- real-time BRET1 change, α2AAR-Venus / Gαi1-122Rluc [1]: rapid decrease in BRET^1
- time BRET levels reached following agonist stimulation remained constant, α2AAR-Venus pairs [1]: at least 12 seconds
- change in BRET2, Gαi1-91Rluc / GFP10-Gγ2, measured concomitantly with BRET1 in the same cells [2]: decrease in BRET^2
- change in BRET, Gαi1-91Rluc / GFP10-Gγ2 [2]: promoted a reduction of BRET; also recorded: decreased the BRET
- change in BRET, Gαi1-122Rluc / GFP10-Gγ2 [2]: promoted a reduction of BRET; also recorded: decreased the BRET

Compound: Cc1cccc([C@H](C)c2cnc[nH]2)c1C [dexmedetomidine, Dexmedetomidine]
- change in BRET2, Gαi1-91Rluc / α2AAR-GFP2 [1]: partial increase in BRET
- change in BRET2, Gαi1-122Rluc / α2AAR-GFP2 [1]: larger responses
- change in BRET2, α2AAR-Rluc / GFP10-Gβ1 [1]: partial increase in BRET
- change in BRET2, α2AAR-Rluc / GFP10-Gγ2 [1]: partial increase in BRET
- modulation of BRET, Gαi1-Rluc / α2AAR-GFP10 [1]: induced only a fraction of the full agonist modulation UK14304
- change in BRET, Gαi1-91Rluc / GFP10-Gγ2 [2, 5]: decreased the BRET
- change in BRET, Gαi1-122Rluc / GFP10-Gγ2 [2, 5]: decreased the BRET

Compound: pertussis toxin
- effect of pre-treatment on agonist-promoted changes in BRET between α2AAR and G protein subunits [1]: blocked
- effect of pre-treatment on agonist-promoted changes in BRET between α2AAR and G protein subunits ([1]; listed as PTX): greatly blunted agonist-promoted BRET changes
- effect of treatment on UK14,304-promoted BRET changes, Gαi1-91Rluc or Gαi1-122Rluc / GFP10-Gγ2 ([2]; pertussis toxin 16 h at 37° C., FIG. 21): abolished

Compound: Nc1nc2c(ncn2[C@@H]2O[C@H](COP(=O)(O)OP(=O)(O)OP(O)(O)=S)[C@@H](O)[C@H]2O)c(=O)[nH]1 [GTPγS]
- effect on agonist-promoted BRET signal, β2AR-Rluc / GFP10-Gβ1 or GFP10-Gγ2 ([4]; GTPγS 200 μM, 90 min at 25° C. pretreatment, Iso 10 μM): attenuated the agonist-promoted signal
- effect on basal BRET in the absence of agonist, β2AR-Rluc / GFP10-Gβ1 or GFP10-Gγ2 ([4]; GTPγS 200 μM, 90 min at 25° C. pretreatment): reduced the basal BRET

Compound: AVP: Vasopressin-selective agonist (V2R)
- modulation of BRET signal, β2AR-Rluc / GFP-Gγ2 or GFP-Gβ1, in cells also expressing Myc-V2R ([3]; 10 μM AVP, specificity control, FIG. 7): unable to modulate BRET signal

Compound: Clc1cccc(Cl)c1N=C1NCCN1 [clonidine, Clonidine]
- change in BRET2, Gαi1-91Rluc / α2AAR-GFP2 [1]: partial increase in BRET
- change in BRET2, α2AAR-Rluc / GFP10-Gβ1 [1]: partial increase in BRET
- change in BRET2, α2AAR-Rluc / GFP10-Gγ2 [1]: partial increase in BRET
- modulation of BRET, Gαi1-Rluc / α2AAR-GFP10 [1]: induced only a fraction of the full agonist modulation UK14304
- change in BRET, Gαi1-91Rluc / GFP10-Gγ2 [2]: decreased the BRET
- change in BRET, Gαi1-122Rluc / GFP10-Gγ2 [2]: decreased the BRET

Compound: Nc1nc2c(ncn2[C@@H]2O[C@H](COP(=O)(O)OP(=O)(O)OP(=O)(O)O)[C@@H](O)[C@H]2O)c(=O)[nH]1 [GTP, Guanosine triphosphate]
- effect of GTP on basal and agonist-stimulated BRET, β2AR-Rluc / GFP-Gβ1 or GFP-Gγ2 ([4]; high GTP concentrations, 90 min at 25° C., Iso 10 μM, FIG. 9): GTP sensitive
